# Test results published in patent US20260234144A1 (TAY THERAPEUTICS LIMITED, priority 2023, published 2026).
# System: R223X stop codon in the mutated luciferase gene, ADXC8 luciferase reporter cell line
# Test: cells
# Format: cell-based
# Conditions: ADXC8 cells, 24 hours; for Emax / EC (100% of 200 uM G418 response): 24 h; for Emax: read-out: Fold Over Control, maximum fold response relative to 200 μM G418; for EC (100% of 200 uM G418 response): read-out: pC100%, negative logarithm of the concentration giving the same response as 200 μM G418; for Fold Over Control: maximum fold response relative to 200 μM G418; for pC100%: negative logarithm of the concentration giving the same response as 200 μM G418
Structure (SMILES),Emax [%],EC (100% of 200 uM G418 response) [µM],Fold Over Control,pC100%
CCNc1nc(N[C@H]2CN(C)C[C@@H]2F)nc2nc(C)cc(C)c12 [Example 393],100 to 3000,1 to 10,–,–
CN1CCC(Nc2nc(N)c3ccc(-c4cccc(C(=O)N(C)C)c4)nc3n2)CC1 [Example 86],0 to 100,> 100,–,–
"CNc1nc(N[C@H]2CN(C)C[C@@H]2OC(=O)OC(C)(C)C)nc2nc3c(c(C)c12)CCC3 [Example 685, tert-butyl ((3S,4S)-1-methyl-4-((5-methyl-4-(methylamino)-7,8-dihydro-6H-cyclopenta[5,6]pyrido[2,3-d]pyrimidin-2-yl)amino)pyrrolidin-3-yl) carbonate]",100 to 3000,0.1 to 1,–,–
"Cc1cc(C)c2c(N)cc(NCCCCN(C)C)nc2n1 [Example 254, N^2-(4-(dimethylamino)butyl)-5,7-dimethyl-1,8-naphthyridine-2,4-diamine]",100 to 3000,10 to 100,–,–
CNc1nc(NCC23CCC[C@H]2N(C)CC3)nc2nc(C)cc(C)c12 (stereo partly drawn) [Example 405],100 to 3000,1 to 10,–,–
Cc1c2c(nc3nc(NC4CCN(Cc5ccccc5B(O)O)CC4)nc(N)c13)CCC2 [Example 670],100 to 3000,0.1 to 1,–,–
Cc1cc(C)c2c(N)nc(NC3CCN(Cc4cccc(C(F)F)c4)CC3)nc2n1 [Example 489],100 to 3000,1 to 10,–,–
"CNc1c(C)c(NCCCN(C)C)nc2nc(C)cc(C)c12 [Example 522, N^2-(3-(dimethylamino)propyl)-N^4,3,5,7-tetramethyl-1,8-naphthyridine-2,4-diamine]",0 to 100,> 31.6,–,–
Cc1cc(C)c2c(NCC(F)(F)F)nc(N[C@@H]3CCN(C)C3)nc2n1 [Example 389],100 to 3000,10 to 100,–,–
"CN1CCC(Nc2nc(N)c3ccc(-c4ccccc4)nc3n2)CC1 [Example 27, N^2-(1-methylpiperidin-4-yl)-7-phenylpyrido[2,3-d]pyrimidine-2,4-diamine]",100 to 3000,1 to 10,–,–
CN1CCC(Nc2nc(N)c3ccc(-c4cnccn4)nc3n2)CC1 [Example 117],0 to 100,> 100,–,–
CNc1nc(N[C@H]2CN[C@H](COC)C2)nc2nc(C)cc(C)c12 [Example 414],–,1 to 10,–,–
Cc1cc(C)c2c(N)nc(NC3CC4CC[C@@H](C3)N4C(=O)OC(C)(C)C)nc2n1 (stereo partly drawn) [Example 137],100 to 3000,10 to 100,–,–
CNc1cc(N[C@H]2CN(C)C[C@@H]2F)nc2nc3c(c(C)c12)CCC3 [Example 634],100 to 3000,0.1 to 1,–,–
"CNc1nc(NC2C3CNC2C3)nc2nc(C)cc(C)c12 (single isomer, unassigned) [Example 445]",–,–,## (Fold over Ctrl > 1 ≤ 30),++ (pC100% > 5.0 ≤ 6.0)
Cc1cc(C)c2c(N)nc(NCC3(N(C)C)CCOCC3)nc2n1 [Example 156],–,1 to 10,–,–
"CN1CCC(Nc2nc(N)c3ccc(Nc4ccccc4)nc3n2)CC1 [Example 35, N^2-(1-methylpiperidin-4-yl)-N^7-phenylpyrido[2,3-d]pyrimidine-2,4,7-triamine]",0 to 100,> 100,–,–
CNc1nc(N[C@@H]2CN[C@@H](C)C2)nc2nc(C)cc(C)c12 [Example 374],100 to 3000,10 to 100,–,–
"Cc1cc(C)c2c(N)nc(N[C@@H]3CCN(C)C3)nc2n1 [Example 14, (R)-5,7-dimethyl-N^2-(1-methylpyrrolidin-3-yl)pyrido[2,3-d]pyrimidine-2,4-diamine]",100 to 3000,1 to 10,–,–
CN1CCC(Nc2nc(N)c3ccc(-c4cccc(CN)c4)nc3n2)CC1 [Example 74],–,1 to 10,–,–
"CNc1nc(N[C@H]2CN(C)C[C@@H]2OC(=O)C(C)C)nc2nc3c(c(C)c12)CCC3 [Example 684, (3S,4S)-1-methyl-4-((5-methyl-4-(methylamino)-7,8-dihydro-6H-cyclopenta[5,6]pyrido[2,3-d]pyrimidin-2-yl)amino)pyrrolidin-3-yl isobutyrate]",100 to 3000,0.1 to 1,–,–
"Cc1cc(C)c2c(N)nc(N[C@@H]3CCN(CCO)C3)nc2n1 [Example 224, (R)-2-(3-((4-amino-5,7-dimethylpyrido[2,3-d]pyrimidin-2-yl)amino)pyrrolidin-1-yl)ethan-1-ol]",100 to 3000,10 to 100,–,–
Cc1cc(C)c2c(N)nc(NCC3CCN(C4CC4)C3)nc2n1 (stereo not drawn) [Example 157],100 to 3000,1 to 10,–,–
CN1CCC(Nc2nc(N)c3ccc(-c4ccc(CN)cc4)nc3n2)CC1 [Example 63],100 to 3000,1 to 10,–,–
Cc1cc(C)c2c(N)nc(NCC(C)(C)N3CCOCC3)nc2n1 [Example 148],100 to 3000,10 to 100,–,–
Cc1c2c(nc3nc(NC4CCN(Cc5ccccc5NS(C)(=O)=O)CC4)nc(N)c13)CCC2 [Example 671],100 to 3000,1 to 10,–,–
CNc1nc(NC2CCCN3CCCC23)nc2nc(C)cc(C)c12 (stereo not drawn) [Example 597],–,–,–,++ (pC100% > 5.0 ≤ 6.0)

Structure (SMILES),Emax [%],EC (100% of 200 uM G418 response) [µM],Fold Over Control,pC100%
Cc1cc(C)c2c(N)nc(NC[C@H]3CN(C(=O)OC(C)(C)C)CCO3)nc2n1 [Example 138],0 to 100,> 100,–,–
"Cc1nc2nc(NC3CCN(C)CC3)nc(N)c2c(C)c1C [Example 121, 5,6,7-trimethyl-N2-(1-methylpiperidin-4-yl)pyrido[2,3-d]pyrimidine-2,4-diamine]",100 to 3000,1 to 10,–,–
"CNc1nc(N[C@H]2CN(C)C[C@@H]2OC(C)=O)nc2nc3c(c(C)c12)CCC3 [Example 683, (3S,4S)-1-methyl-4-((5-methyl-4-(methylamino)-7,8-dihydro-6H-cyclopenta[5,6]pyrido[2,3-d]pyrimidin-2-yl)amino)pyrrolidin-3-yl acetate]",100 to 3000,0.1 to 1,–,–
CNc1nc(NCC23CCCN2CCC3)nc2nc(C)cc(C)c12 [Example 600],0 to 100,> 31.6,–,–
"CNc1cc(N[C@@H]2CCN(C)C2)nc2nc(C)cc(C)c12 [Example 515, (R)—N^4,5,7-trimethyl-N^2-(1-methylpyrrolidin-3-yl)-1,8-naphthyridine-2,4-diamine]",100 to 3000,1 to 10,–,–
Cc1cc(C)c2c(N)nc(NC3CCN(C4COC4)CC3)nc2n1 [Example 197],0 to 100,> 31.6,–,–
Cc1cc(C)c2c(N)nc(NC3CCN(Cc4ccccn4)CC3)nc2n1 [Example 471],100 to 3000,1 to 10,–,–
Cc1nc2nc(NC3CCN(Cc4ccc(C#N)c(F)c4)CC3)nc(N)c2c2c1CCC2 [Example 528],100 to 3000,0.1 to 1,–,–
CN1CCC(Nc2nc(N)c3cc(-c4ccn[nH]4)cnc3n2)CC1 [Example 646],0 to 100,> 100,–,–
Cc1cc(C)c2c(N)nc(NC3CCN(Cc4ncc[nH]4)CC3)nc2n1 [Example 487],100 to 3000,1 to 10,–,–
CNc1nc(N[C@@H]2CCNC2)nc2nc(C)cc(C)c12 [Example 294],–,0.1 to 1,–,–
CNc1nc(NCC2CN3CCC2C3)nc2nc(C)cc(C)c12 (stereo not drawn) [Example 404],0 to 100,> 31.6,–,–
"CC(C)Oc1ccc2c(N)nc(NC3CCN(C)CC3)nc2n1 [Example 38, 7-isopropoxy-N^2-(1-methylpiperidin-4-yl)pyrido[2,3-d]pyrimidine-2,4-diamine]",0 to 100,> 100,–,–
CNc1nc(N[C@H]2CN[C@@H](CO)C2)nc2nc(C)cc(C)c12 [Example 411],–,1 to 10,–,–
"CNc1nc(NC2C3CCC2CN(C(C)C)C3)nc2nc(C)cc(C)c12 (single isomer, unassigned) [Example 436]",–,–,## (Fold over Ctrl > 1 ≤ 30),+ (pC100% > 4.0 ≤ 5.0)
Cc1cc(C)c2c(NCc3ccccc3)nc(NC3CCN(C)CC3)nc2n1 [Example 268],100 to 3000,1 to 10,–,–
CNc1nc(N[C@H]2CCCNCC2)nc2nc(C)cc(C)c12 [Example 387],100 to 3000,1 to 10,–,–
Cc1cc(C)c2c(N)nc(NC3CCN(Cc4ccc(O)cc4)CC3)nc2n1 [Example 460],100 to 3000,1 to 10,–,–
"Cc1cc(C)c2c(N)nc(NCCCN3CCOCC3)nc2n1 [Example 6, 5,7-dimethyl-N^2-(3-morpholinopropyl)pyrido[2,3-d]pyrimidine-2,4-diamine]",100 to 3000,10 to 100,–,–
CC(CO)c1cnc2nc(NC3CCN(C)CC3)nc(N)c2c1 (stereo not drawn) [Example 286],0 to 100,> 100,–,–
CCNc1nc(N[C@H]2CNC[C@@H]2F)nc2nc(C)cc(C)c12 [Example 394],–,1 to 10,–,–
CN1CCC(Nc2nc(N)c3cc(C#N)cnc3n2)CC1 [Example 277],0 to 100,> 31.6,–,–
"Cc1c2c(nc3nc(NC4CCNCC4)nc(NCCO)c13)CCC2 [Example 510, 2-((5-methyl-2-(piperidin-4-ylamino)-7,8-dihydro-6H-cyclopenta[5,6]pyrido[2,3-d]pyrimidin-4-yl)amino)ethan-1-ol]",100 to 3000,0.1 to 1,–,–
CNc1nc(N[C@@H]2CCN(C)C2)nc2nc3c(c(C)c12)CCC3 [Example 336],100 to 3000,0.1 to 1,–,–
Cc1cc(C)c2c(N)nc(NC3CCN(Cc4ccncc4Br)CC3)nc2n1 [Example 559],100 to 3000,1 to 10,–,–
Cc1cc(C)c2c(N)nc(N[C@@H]3CCNC[C@H]3F)nc2n1 [Example 585],100 to 3000,1 to 10,–,–
